Assay results taken from PubChem BioAssay (NCI).
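Cells were grown in 96-well plates and exposed to each compound for 48 hours at five concentrations; endpoints were interpolated linearly between bracketing concentrations, or set to the highest concentration if not reached. GI50: concentration for 50% inhibition of growth. TGI is the concentration that stops growth completely.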

How the values were obtained:
Assay in all cases: NCI tumour cell line growth inhibition, 48 h
KM12 colon = system: KM12 colon
UACC-62 melanoma = system: UACC-62 melanoma
HOP-62 NSCLC = system: HOP-62 NSCLC
COLO 205 colon = system: COLO 205 colon
MALME-3M melanoma = system: MALME-3M melanoma
SK-OV-3 ovarian = system: SK-OV-3 ovarian
MDA-MB-435 = system: MDA-MB-435
NCI-H226 lung = system: NCI-H226 lung
DU-145 prostate = system: DU-145 prostate
M14 melanoma = system: M14 melanoma
SF-268 CNS = system: SF-268 CNS
SK-MEL-28 melanoma = system: SK-MEL-28 melanoma
HS 578T breast = system: HS 578T breast
NCI-H23 lung = system: NCI-H23 lung
ACHN renal = system: ACHN renal
NCI-H522 lung = system: NCI-H522 lung
NCI/ADR-RES ovarian = system: NCI/ADR-RES ovarian
U251 CNS = system: U251 CNS
LOX IMVI melanoma = system: LOX IMVI melanoma
K-562 leukemia = system: K-562 leukemia
MCF7 breast = system: MCF7 breast
NCI-H460 lung = system: NCI-H460 lung
RXF 393 renal = system: RXF 393 renal
OVCAR-8 ovarian = system: OVCAR-8 ovarian
SF-539 CNS = system: SF-539 CNS
TK-10 renal = system: TK-10 renal
EKVX NSCLC = system: EKVX NSCLC
UO-31 renal = system: UO-31 renal
SR leukemia = system: SR leukemia
HCC-2998 colon = system: HCC-2998 colon
MDA-MB-231 breast = system: MDA-MB-231 breast
HOP-92 NSCLC = system: HOP-92 NSCLC
SF-295 CNS = system: SF-295 CNS
UACC-257 melanoma = system: UACC-257 melanoma
CCRF-CEM leukemia = system: CCRF-CEM leukemia
BT-549 breast = system: BT-549 breast
PC-3 prostate = system: PC-3 prostate
HL-60(TB) leukemia = system: HL-60(TB) leukemia
RPMI-8226 leukemia = system: RPMI-8226 leukemia
A498 renal = system: A498 renal
786-0 renal = system: 786-0 renal
SNB-75 CNS = system: SNB-75 CNS
SNB-19 CNS = system: SNB-19 CNS
SK-MEL-5 melanoma = system: SK-MEL-5 melanoma
IGROV1 ovarian = system: IGROV1 ovarian
HCT-116 colon = system: HCT-116 colon
HCT-15 colon = system: HCT-15 colon
SW-620 colon = system: SW-620 colon
T-47D breast = system: T-47D breast
CAKI-1 renal = system: CAKI-1 renal
SK-MEL-2 melanoma = system: SK-MEL-2 melanoma
MOLT-4 leukemia = system: MOLT-4 leukemia
OVCAR-3 ovarian = system: OVCAR-3 ovarian
OVCAR-5 ovarian = system: OVCAR-5 ovarian
SN12C renal = system: SN12C renal
A549 NSCLC = system: A549 NSCLC

Q: Which GI50 (KM12 colon) does the source give for `Cn1cc(-c2nc(-c3cn(C)c4ncccc34)cs2)c2ccccc21` here?
A: 0.61 µM

Q: And the TGI (KM12 colon)?
A: > 100 µM

Q: What about the GI50 (UACC-62 melanoma) of the same compound?
A: 1.35 µM

Q: What about the TGI (UACC-62 melanoma) of the same compound?
A: > 100 µM

Q: And the GI50 (HOP-62 NSCLC)?
A: 2.01 µM

Q: What about the TGI (HOP-62 NSCLC) of the same compound?
A: 11.5 µM

Q: What about the GI50 (COLO 205 colon) of the same compound?
A: 1.68 µM

Q: What about the TGI (COLO 205 colon) of the same compound?
A: 14 µM

Q: What about the GI50 (MALME-3M melanoma) of the same compound?
A: 0.468 µM

Q: And the TGI (MALME-3M melanoma)?
A: 5.64 µM

Q: And the GI50 (SK-OV-3 ovarian)?
A: 1.98 µM

Q: What about the TGI (SK-OV-3 ovarian) of the same compound?
A: 5.31 µM

Q: And the GI50 (MDA-MB-435)?
A: 0.292 µM

Q: What about the TGI (MDA-MB-435) of the same compound?
A: 1.15 µM

Q: What about the GI50 (NCI-H226 lung) of the same compound?
A: 2.29 µM

Q: And the TGI (NCI-H226 lung)?
A: 14.4 µM

Q: What about the GI50 (DU-145 prostate) of the same compound?
A: 2.25 µM

Q: And the TGI (DU-145 prostate)?
A: 10.7 µM

Q: What about the GI50 (M14 melanoma) of the same compound?
A: 0.955 µM

Q: And the TGI (M14 melanoma)?
A: 20.4 µM

Q: And the GI50 (SF-268 CNS)?
A: 4.83 µM

Q: And the TGI (SF-268 CNS)?
A: 37.3 µM

Q: And the GI50 (SK-MEL-28 melanoma)?
A: 2.09 µM

Q: And the TGI (SK-MEL-28 melanoma)?
A: > 100 µM

Q: And the GI50 (HS 578T breast)?
A: 4.14 µM

Q: And the TGI (HS 578T breast)?
A: > 100 µM

Q: And the GI50 (NCI-H23 lung)?
A: 3.14 µM

Q: And the TGI (NCI-H23 lung)?
A: 23.9 µM

Q: And the GI50 (ACHN renal)?
A: 3.67 µM

Q: And the TGI (ACHN renal)?
A: 79.4 µM

Q: And the GI50 (NCI-H522 lung)?
A: 0.402 µM

Q: And the TGI (NCI-H522 lung)?
A: 11.9 µM

Q: What about the GI50 (NCI/ADR-RES ovarian) of the same compound?
A: 0.62 µM

Q: What about the TGI (NCI/ADR-RES ovarian) of the same compound?
A: > 100 µM

Q: And the GI50 (U251 CNS)?
A: 1.53 µM

Q: What about the TGI (U251 CNS) of the same compound?
A: 11.4 µM

Q: And the GI50 (LOX IMVI melanoma)?
A: 1.27 µM

Q: And the TGI (LOX IMVI melanoma)?
A: > 100 µM

Q: What about the GI50 (K-562 leukemia) of the same compound?
A: 0.412 µM

Q: What about the TGI (K-562 leukemia) of the same compound?
A: > 100 µM

Q: And the GI50 (MCF7 breast)?
A: 0.372 µM

Q: What about the TGI (MCF7 breast) of the same compound?
A: 17.5 µM

Q: And the GI50 (NCI-H460 lung)?
A: 0.858 µM

Q: And the TGI (NCI-H460 lung)?
A: 15.9 µM

Q: What about the GI50 (RXF 393 renal) of the same compound?
A: 1.53 µM

Q: And the TGI (RXF 393 renal)?
A: 4.09 µM

Q: What about the GI50 (OVCAR-8 ovarian) of the same compound?
A: 3.43 µM

Q: What about the TGI (OVCAR-8 ovarian) of the same compound?
A: > 100 µM

Q: And the GI50 (SF-539 CNS)?
A: 1.76 µM

Q: What about the TGI (SF-539 CNS) of the same compound?
A: 4.99 µM

Q: And the GI50 (TK-10 renal)?
A: 2.4 µM

Q: And the TGI (TK-10 renal)?
A: 11.6 µM

Q: And the GI50 (EKVX NSCLC)?
A: 1.77 µM

Q: And the TGI (EKVX NSCLC)?
A: > 100 µM

Q: And the GI50 (UO-31 renal)?
A: 4.93 µM

Q: What about the TGI (UO-31 renal) of the same compound?
A: > 100 µM

Q: What about the GI50 (SR leukemia) of the same compound?
A: 0.703 µM

Q: And the TGI (SR leukemia)?
A: > 100 µM

Q: What about the GI50 (HCC-2998 colon) of the same compound?
A: 2.05 µM

Q: And the TGI (HCC-2998 colon)?
A: > 100 µM

Q: What about the GI50 (MDA-MB-231 breast) of the same compound?
A: 3.16 µM

Q: What about the TGI (MDA-MB-231 breast) of the same compound?
A: 21.8 µM

Q: And the GI50 (HOP-92 NSCLC)?
A: 1.68 µM

Q: What about the TGI (HOP-92 NSCLC) of the same compound?
A: 9.39 µM

Q: What about the GI50 (SF-295 CNS) of the same compound?
A: 1.22 µM

Q: What about the TGI (SF-295 CNS) of the same compound?
A: 10.8 µM

Q: And the GI50 (UACC-257 melanoma)?
A: 3.61 µM

Q: And the TGI (UACC-257 melanoma)?
A: > 100 µM

Q: What about the GI50 (CCRF-CEM leukemia) of the same compound?
A: 2.98 µM

Q: And the TGI (CCRF-CEM leukemia)?
A: > 100 µM

Q: What about the GI50 (BT-549 breast) of the same compound?
A: 2.32 µM

Q: What about the TGI (BT-549 breast) of the same compound?
A: 31 µM

Q: And the GI50 (PC-3 prostate)?
A: 1.92 µM

Q: And the TGI (PC-3 prostate)?
A: 9.3 µM

Q: What about the GI50 (HL-60(TB) leukemia) of the same compound?
A: 1.92 µM

Q: And the TGI (HL-60(TB) leukemia)?
A: > 100 µM

Q: What about the GI50 (RPMI-8226 leukemia) of the same compound?
A: 3.72 µM

Q: And the TGI (RPMI-8226 leukemia)?
A: > 100 µM

Q: And the GI50 (A498 renal)?
A: 1.5 µM

Q: What about the TGI (A498 renal) of the same compound?
A: 13.5 µM

Q: And the GI50 (786-0 renal)?
A: 2.68 µM

Q: And the TGI (786-0 renal)?
A: 13.7 µM

Q: What about the GI50 (SNB-75 CNS) of the same compound?
A: 1.44 µM

Q: What about the TGI (SNB-75 CNS) of the same compound?
A: 4.83 µM

Q: What about the GI50 (SNB-19 CNS) of the same compound?
A: 3.68 µM

Q: And the TGI (SNB-19 CNS)?
A: 25.2 µM

Q: And the GI50 (SK-MEL-5 melanoma)?
A: 0.842 µM

Q: And the TGI (SK-MEL-5 melanoma)?
A: 3.06 µM

Q: What about the GI50 (IGROV1 ovarian) of the same compound?
A: 1.39 µM

Q: And the TGI (IGROV1 ovarian)?
A: 38.7 µM

Q: And the GI50 (HCT-116 colon)?
A: 0.802 µM

Q: What about the TGI (HCT-116 colon) of the same compound?
A: 18.4 µM

Q: What about the GI50 (HCT-15 colon) of the same compound?
A: 1.49 µM

Q: What about the TGI (HCT-15 colon) of the same compound?
A: > 100 µM

Q: And the GI50 (SW-620 colon)?
A: 1.24 µM

Q: What about the TGI (SW-620 colon) of the same compound?
A: > 100 µM

Q: What about the GI50 (T-47D breast) of the same compound?
A: 2.98 µM

Q: What about the TGI (T-47D breast) of the same compound?
A: 17 µM

Q: What about the GI50 (CAKI-1 renal) of the same compound?
A: 0.972 µM

Q: What about the TGI (CAKI-1 renal) of the same compound?
A: > 100 µM

Q: And the GI50 (SK-MEL-2 melanoma)?
A: 4.5 µM

Q: And the TGI (SK-MEL-2 melanoma)?
A: 68.7 µM

Q: What about the GI50 (MOLT-4 leukemia) of the same compound?
A: 4.65 µM

Q: And the TGI (MOLT-4 leukemia)?
A: > 100 µM

Q: And the GI50 (OVCAR-3 ovarian)?
A: 0.414 µM

Q: And the TGI (OVCAR-3 ovarian)?
A: 1.71 µM

Q: And the GI50 (OVCAR-5 ovarian)?
A: 4.92 µM

Q: And the TGI (OVCAR-5 ovarian)?
A: 45.1 µM

Q: And the GI50 (SN12C renal)?
A: 4.76 µM

Q: What about the TGI (SN12C renal) of the same compound?
A: > 100 µM

Q: And the GI50 (A549 NSCLC)?
A: 1.43 µM

Q: What about the TGI (A549 NSCLC) of the same compound?
A: > 100 µM
